Read-outs that look alike come from different tables or passages of the source.
How the values were obtained:
[1] = test system: SMN2 minigene (full length SMN2 minigene mRNA containing SMN2 exon 7); assay: SMN2 minigene mRNA splicing RT-qPCR assay in cultured cells; format: cell-based, human; settings: Homo sapiens, HEK293-H, read-out: EC1.5x for production of full length SMN2 mRNA
Method in brief: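 Full-length SMN2 minigene mRNA (exon 7 included), minigene-specific and not endogenous SMN, quantified by RT-qPCR multiplexed with GAPDH in stably transfected HEK293H cells after 24 h compound exposure at 37° C. Abundance from efficiency-corrected Ct, normalized to GAPDH and vehicle; EC1.5x reported as star bins.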

Smn protein = Smn protein assay in cultured cells (SMN HTRF); format: cell-based, human; settings: 48 hours; for EC1.5x (concentration giving 1.5-fold Smn protein increase): SMA Type 1 patient fibroblast cells (GM03813), 7-point concentration curve, SMN HTRF, concentration producing 1.5 times Smn protein vs DMSO vehicle control, read-out: EC1.5x for Smn protein expression; for maximum fold (Fold) increase of Smn protein: SMA patient fibroblast cells, 7-point concentration data, fold increase relative to vehicle control (SMN HTRF)
Method in brief: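 Smn in SMA fibroblast lysates, measured by anti-SMN HTRF after 48 h compound exposure; EC1.5x from fold change over vehicle.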

[2] = HEK293H cells stably transfected with SMN2-A minigene, 24 hours, 7-point concentration curve, 1.5-fold relative to vehicle-treated cells

Row | SMILES | melting point [°C] | EC (1.5-fold) [1, 2] [µM] | EC1.5x (concentration giving 1.5-fold Smn protein increase) (Smn protein) [nM] | maximum fold (Fold) increase of Smn protein (Smn protein) | EC (1.5-fold) ([1]; 24 h) [µM]
1 | Cc1cn2cc(-c3cc4ccc(N5CC[C@H](N(C)C)C5)cc4oc3=O)cc2cn1 [Compound 666, 7-[(3S)-3-(dimethylamino)pyrrolidin-1-yl]-3-(3-methylpyrrolo[1,2-a]pyrazin-7-yl)-2H-chromen-2-one] | 200 to 204 | < 0.1 | < 300 | **** (fold increase between >1.5 and ≤1.65) | –
2 | CCCN1CCN(c2ccc3cc(-c4cn5cccnc5n4)c(=O)oc3c2)CC1 [Compound 109, 3-(imidazo[1,2-a]pyrimidin-2-yl)-7-(4-propylpiperazin-1-yl)-2H-chromen-2-one] | 291 to 293 | 1 to 3 | 3000 to 10000 | *** (fold increase between >1.35 and ≤1.5) | –
3 | C[C@@H]1CN(c2ccc3cc(-c4cc5cnccc5s4)c(=O)oc3c2)C[C@H](C)N1 [Cpd 630, 7-[(3R,5S)-3,5-dimethylpiperazin-1-yl]-3-(thieno[3,2-c]pyridin-2-yl)-2H-chromen-2-one] | 163 to 165 | 0.3 to 1 | – | * (maximum fold increase of ≤1.2) | –
4 | O=c1oc2cc(N3CCNCC3)ccc2cc1-c1cccnc1 [Compound 12, 7-(piperazin-1-yl)-3-(pyridin-3-yl)-2H-chromen-2-one] | 170 to 172 | – | – | * (maximum fold increase of ≤1.2) | 3 to 30
5 | O=c1oc2cc(N3CCNCC3)ccc2cc1-c1cc2ccccc2o1 [Compound 602, 3-(1-benzofuran-2-yl)-7-(piperazin-1-yl)-2H-chromen-2-one] | 208 to 211 | 0.3 to 1 | – | * (maximum fold increase of ≤1.2) | –
6 | O=C(Oc1ccc2cc(-c3nc4ccccc4s3)c(=O)oc2c1)N1CCNCC1 [Compound 41, 3-(1,3-benzothiazol-2-yl)-2-oxo-2H-chromen-7-yl piperazine-1-carboxylate] | 221 to 225 | – | – | * (maximum fold increase of ≤1.2) | 1 to 3
7 | Cc1ccn2cc(-c3cc4ccc(N5CCN[C@H](C)C5)cc4oc3=O)nc2n1 [Compound 228, 3-(7-methylimidazo[1,2-a]pyrimidin-2-yl)-7-[(3R)-3-methylpiperazin-1-yl]-2H-chromen-2-one] | 297 to 300 | 0.1 to 0.3 | – | ** (fold increase between >1.2 and ≤1.35) | –
8 | Cc1ccc2nc(-c3cc4c(F)cc(N5CCNCC5)cc4oc3=O)cn2c1 [Cpd 162, 5-fluoro-3-(6-methylimidazo[1,2-a]pyridin-2-yl)-7-(piperazin-1-yl)-2H-chromen-2-one] | 265 to 270 | 0.1 to 0.3 | 300 to 1000 | *** (fold increase between >1.35 and ≤1.5) | –
9 | Cc1cccc2nc(-c3cc4ccc(N5CCNCC5)cc4oc3=O)cn12 [Compound 132, 3-(5-methylimidazo[1,2-a]pyridin-2-yl)-7-(piperazin-1-yl)-2H-chromen-2-one] | 239 to 249 | 1 to 3 | – | * (maximum fold increase of ≤1.2) | –
10 | Cc1cn2cc(-c3cc4ccc(N5CCN(C)[C@H](C)C5)cc4oc3=O)nc2cn1 [Compound 628, 7-[(3R)-3,4-dimethylpiperazin-1-yl]-3-(6-methylimidazo[1,2-a]pyrazin-2-yl)-2H-chromen-2-one] | 256 to 258 | < 0.1 | < 300 | **** (fold increase between >1.5 and ≤1.65) | –
11 | Cc1cn2cc(-c3cc4ccc(NC5C[C@H]6CCC[C@@H](C5)N6C)cc4oc3=O)cc2c(C)n1 (stereo partly drawn) [Compound 728, 3-(1,3-dimethylpyrrolo[1,2-a]pyrazin-7-yl)-7-{[(1R,5S)-9-methyl-9-azabicyclo[3.3.1]non-3-yl]amino}-2H-chromen-2-one] | 235 to 238 | – | – | * (maximum fold increase of ≤1.2) | 0.3 to 1

Now from value to compound, other results behind:

Row | melting point [°C] | SMILES | EC (1.5-fold) [1, 2] [µM] | EC1.5x (concentration giving 1.5-fold Smn protein increase) (Smn protein) [nM] | maximum fold (Fold) increase of Smn protein (Smn protein) | EC (1.5-fold) ([1]; 24 h) [µM]
12 | 202 to 204 | Cc1cn2cc(-c3cc4ccc(N5CCN[C@@H](C)C5)cc4oc3=O)cc2cn1 [Compound 647, 7-[(3S)-3-methylpiperazin-1-yl]-3-(3-methylpyrrolo[1,2-a]pyrazin-7-yl)-2H-chromen-2-one] | < 0.1 | < 300 | **** (fold increase between >1.5 and ≤1.65) | –
13 | 251 to 259 | Cc1cc([N+](=O)[O-])c2nc(-c3cc4ccc(N5CCN[C@@H](C)C5)cc4oc3=O)cn2c1 [Compound 703, 3-(6-methyl-8-nitroimidazo[1,2-a]pyridin-2-yl)-7-[(3S)-3-methylpiperazin-1-yl]-2H-chromen-2-one] | 1 to 3 | – | ** (fold increase between >1.2 and ≤1.35) | –
14 | 288 to 290 | CCN1CCC(c2ccc3cc(-c4cnc5nc(C)cn5c4)c(=O)oc3c2)CC1 [Compound 836, 7-(1-ethylpiperidin-4-yl)-3-(2-methylimidazo[1,2-a]pyrimidin-6-yl)-2H-chromen-2-one] | 0.3 to 1 | 300 to 1000 | ***** (fold increase >1.65) | –
15 | 198 to 200 | Cc1cn2cc(-c3cc4ccc(N5CC[C@@H](CN(C)C)C5)cc4oc3=O)nc2c(C)n1 [Compound 967, 7-{(3S)-3-[(dimethylamino)methyl]pyrrolidin-1-yl}-3-(6,8-dimethylimidazo[1,2-a]pyrazin-2-yl)-2H-chromen-2-one] | < 0.1 | < 300 | **** (fold increase between >1.5 and ≤1.65) | –
16 | 217 to 220 | Cc1nc(Cl)cn2cc(-c3cc4ccc(N5CCN(C)CC5)cc4oc3=O)nc12 [Compound 764, 3-(6-chloro-8-methylimidazo[1,2-a]pyrazin-2-yl)-7-(4-methylpiperazin-1-yl)-2H-chromen-2-one] | < 0.1 | – | ** (fold increase between >1.2 and ≤1.35) | –
17 | 270 to 277 | Cc1cc(F)c2nc(-c3cc4ccc(N5CCN(C)[C@@H](C)C5)cc4oc3=O)cn2c1 [Compound 471, 7-[(3S)-3,4-dimethylpiperazin-1-yl]-3-(8-fluoro-6-methylimidazo[1,2-a]pyridin-2-yl)-2H-chromen-2-one] | 0.1 to 0.3 | 300 to 1000 | **** (fold increase between >1.5 and ≤1.65) | –
18 | 169 to 173 | Cc1cn2cc(-c3cc4ccc(N5CCN6CCC[C@H]6C5)cc4oc3=O)cc2c(C)n1 [Compound 673, 3-(1,3-dimethylpyrrolo[1,2-a]pyrazin-7-yl)-7-[(8aS)-hexahydropyrrolo[1,2-a]pyrazin-2(1H)-yl]-2H-chromen-2-one] | < 0.1 | < 300 | ***** (fold increase >1.65) | –
19 | 215 to 217 | CN1CCC(N(C)c2ccc3cc(-c4cn5cccnc5n4)c(=O)oc3c2)C1 (centres unmarked) [Compound 181, 3-(imidazo[1,2-a]pyrimidin-2-yl)-7-[methyl(1-methylpyrrolidin-3-yl)amino]-2H-chromen-2-one] | < 0.1 | – | ** (fold increase between >1.2 and ≤1.35) | –
20 | 165 to 168 | Cc1cn2cc(-c3cc4ccc(OC5CCN(C)CC5)cc4oc3=O)nc2c(C)n1 [Compound 867, 3-(6,8-dimethylimidazo[1,2-a]pyrazin-2-yl)-7-[(1-methylpiperidin-4-yl)oxy]-2H-chromen-2-one] | < 0.1 | < 300 | **** (fold increase between >1.5 and ≤1.65) | –
21 | 224 to 228 | CN1CCCN(c2cc(F)c3cc(-c4nc5c(F)cccc5o4)c(=O)oc3c2)CC1 [Compound 369, 5-fluoro-3-(4-fluoro-1,3-benzoxazol-2-yl)-7-(4-methyl-1,4-diazepan-1-yl)-2H-chromen-2-one] | 0.1 to 0.3 | – | ** (fold increase between >1.2 and ≤1.35) | –
22 | 212 to 215 | Cc1nccn2cc(-c3cc4ccc(N5CCN[C@H](C)C5)cc4oc3=O)cc12 [Compound 586, 7-[(3R)-3-methylpiperazin-1-yl]-3-(1-methylpyrrolo[1,2-a]pyrazin-7-yl)-2H-chromen-2-one] | < 0.1 | < 300 | *** (fold increase between >1.35 and ≤1.5) | –
23 | 182 to 185 | Cc1ccnc(Nc2cc3ccc(N4CCNCC4)cc3oc2=O)c1 [Compound 62, 3-[(4-methylpyridin-2-yl)amino]-7-(piperazin-1-yl)-2H-chromen-2-one] | 1 to 3 | – | * (maximum fold increase of ≤1.2) | –
24 | 215 to 217 | Cc1nc2ccc(-c3cc4ccc(N5CCN(C)CC5)cc4oc3=O)cc2s1 [Cpd 769, 3-(2-methyl-1,3-benzothiazol-6-yl)-7-(4-methylpiperazin-1-yl)-2H-chromen-2-one] | 0.3 to 1 | – | ** (fold increase between >1.2 and ≤1.35) | –

From patent USRE47689E1, “Compounds for treating spinal muscular atrophy” (PTC Therapeutics, Inc., priority 2011, dated 2019)
